Test results reported in patent US7276508B2, “Indole derivatives useful for the treatment of CNS disorders” (H. Lundbeck A/S, priority 2000, dated 2007).

Tests used:
D4 receptor = molecular target: T1, D4 receptor (Homo sapiens, UniProt P21917); conditions: various in vitro efficacy assays; cited from earlier work
T1 sequence (P21917 1-419): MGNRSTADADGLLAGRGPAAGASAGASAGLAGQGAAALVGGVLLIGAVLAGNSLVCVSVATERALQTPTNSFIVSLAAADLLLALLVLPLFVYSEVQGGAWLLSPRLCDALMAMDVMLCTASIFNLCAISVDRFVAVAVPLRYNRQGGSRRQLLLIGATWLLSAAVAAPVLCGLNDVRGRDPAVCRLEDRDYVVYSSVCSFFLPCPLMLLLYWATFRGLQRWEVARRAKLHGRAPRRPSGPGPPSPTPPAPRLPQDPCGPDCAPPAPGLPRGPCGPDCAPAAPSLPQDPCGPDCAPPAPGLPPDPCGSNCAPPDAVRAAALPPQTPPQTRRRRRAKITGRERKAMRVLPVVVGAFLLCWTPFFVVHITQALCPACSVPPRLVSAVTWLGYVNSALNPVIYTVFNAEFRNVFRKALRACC

Row | SMILES | melting point [°C] | Functional activity at D4 receptor (literature) (D4 receptor)
1 | O=C(CCCN1CCC(c2c[nH]c3ccc(Cl)cc23)CC1)N1CCc2ccccc2C1 [Compound 8, 5-Chloro-3-{1-[4-(3,4-dihydro-1H-isoquinolin-2-yl)-4-oxobutan-1-yl]piperidin-4-yl}-1H-indole] | 172 to 175 | 
2 | CC(C)Oc1cccnc1N(C)C1CCN(Cc2ccccc2)CC1 [Compound U-101958] |  | partial D4 receptor agonists
